# According to a melting point compilation (Tetko et al.; mined from patent text by program, amines drawn as free bases though some values may be those of a salt):
row,melting point,SMILES
1,176 °C,CC(C)C1=Cc2cc(OCC(=O)O)c(Cl)c(Cl)c2C1=O
2,153 to 155 °C,Cc1ccc(C(=O)c2ccc(Cc3c(Cl)cc(N)cc3Cl)cc2)cn1
3,91 to 93 °C,Cn1c(C(F)(F)F)cc(=O)n(-c2cc3c(cc2F)nc(C(F)(F)F)n3Cc2cccc(Cl)c2)c1=O
4,115 to 117 °C,CCCCCC(C)N(Cc1ccc(C(C)(C)C)cc1)C(Nc1ccc(OC)cc1OC)=C1C(=O)COC1=O (stereo not given)
5,158 to 162 °C,Nc1c2c(nc3ccccc13)CC(O)CC2O (stereo not given)
6,162 to 163 °C,Cc1c(NC(=O)CC(C)(C)C)cc2c(c1C)OC(C)(C)C2c1ccc(CO)cc1 (stereo not given)
7,129 to 131 °C,C#Cc1cccc(C2=CC(=O)NC2=O)c1
8,122 to 124 °C,Cc1cccc(CC(=O)Nc2cc(Cl)c(Cl)cc2[N+](=O)[O-])c1
9,185 to 186 °C,CS(=O)(=O)c1c(Sc2ccccc2)cccc1C(=O)O
10,179 to 184 °C,Cc1c(Cc2ccccc2)c(=O)n2c(CN(C)Cc3ccccc3)c(-c3ccc(NC(=O)OC(C)(C)C)cc3)nc2n1Cc1c(F)cccc1F
11,204 to 208 °C,O=C(c1ccccc1)c1cccnc1-c1nc(NC2CCCCC2)c2ccccc2n1
12,125 to 127 °C,CN(C)C(=Cc1ccccc1[N+](=O)[O-])C(=O)CBr
13,201 to 204 °C,CCC(=O)N1CCC(NC(=O)Nc2ccc(C(=O)O)cc2)CC1
14,200 to 202 °C,CC(C)n1nc(-c2cnc(Nc3ccccc3)nc2-c2ccccc2)ccc1=O
15,> 260 °C,O=C1c2ccccc2C(=O)c2sc(-c3cc(Br)co3)nc21
16,117 to 118 °C,c1ccc(-c2ccc(N(c3ccccc3)c3ccccc3)cc2)cc1
17,98.5 to 99 °C,Nc1ccc(-c2scc3c2OCCO3)cc1
18,149 to 152 °C,O=C1NCCN1Cc1ccc2ccccc2c1
19,153 to 154 °C,COc1cc(COc2nn(-c3ccccc3)cc2CC#N)ccc1OCc1nc(-c2ccco2)oc1C
20,155 °C,COc1ccccc1Sc1c(Cl)nc(C)nc1NS(=O)(=O)c1ccc(C(C)(C)C)cc1
21,213 to 215 °C,COCn1c(C)nc2c3c(c(C(=O)N(C)C)cc21)CCC(c1ccccc1)O3 (stereo not given)
22,171 °C,O=C(Nc1cccc2[nH]ccc12)c1ccccc1OCC1CO1 (stereo not given)
23,156 to 158 °C,CC(C)(C)CC(=O)c1ccc(O)c(Cl)c1Cl

row,melting point,SMILES
1,110 to 111 °C,COC[C@H](C1CC1)n1cc(Cl)nc(Cl)c1=O
2,58 to 60 °C,CC(C)(C)c1cnc(-c2nn(-c3ccc(F)cc3F)c3c2C2CCC3C2)o1 (stereo not given)
3,37 to 38 °C,Cc1ccc(S(=O)(=O)O[C@H](C)COc2c(N)ccc(F)c2F)cc1
4,189 to 190 °C,COC(=O)c1ccc(-c2nc(-c3ccc(Cl)cc3)no2)c([N+](=O)[O-])c1
5,75 to 80 °C,O=c1oc(-c2ccccc2)cc(O)c1C(CC1CC1)SC1CCCC1 (stereo not given)
6,188 to 200 °C,O=C(N/C(=C\c1c[nH]c2ccccc12)C(=O)NCCc1ccccn1)OC1C2CC3CC(C2)CC1C3 (stereo not given)
7,235 to 237 °C,Cc1[nH]c(S(C)(=O)=O)nc1-c1cc(C(C)(C)C)c(O)c(C(C)(C)C)c1
8,170 to 171 °C,CC(C)(C)OC(=O)CNC(=O)OCC1c2c(c3ccccc3c3ccccc23)-c2c1c1ccccc1c1ccccc21
9,210 to 212 °C,COCC1(C)Oc2ccc(C#N)cc2C(n2ccccc2=O)C1O (stereo not given)
10,224 to 226 °C,O=S(=O)(Nc1c(F)cccc1F)c1nc2ncc(Cl)cn2n1
11,252 to 254 °C,CCOCc1nc2c(N)nc3cc(OCc4cccc(C)c4)ccc3c2n1CC(C)(C)NS(C)(=O)=O
12,242 to 243 °C,FC(F)(F)c1ccc2nc(-c3csc(Nc4c(Cl)cccc4Cl)n3)[nH]c2c1
13,151 to 152 °C,O=C1NC(c2ccccc2)(c2ccccc2)C(=O)N1COCc1ccccc1
14,225 to 231 °C,O=C1CC(c2cccc(-n3ccnc3)c2)=Nc2ccc(-c3ccc(OCc4ccccc4)nc3)cc2N1
15,116 to 119 °C,C[C@@H]1Cc2ccsc2[C@H](C)N1CCNS(=O)(=O)c1ccc([N+](=O)[O-])cc1 (relative stereo)
16,176 to 179 °C,COc1ccc(CCC(C)=O)cc1S(N)(=O)=O
17,252 to 253 °C,CCCC(=O)c1cnc2c(OC)cccc2c1Nc1ccc(O)cc1C
18,134 to 136 °C,CCN(CC)CCNC(=O)c1cc(Cl)c(N)cc1O
19,228 °C,CCOc1ccc2c(c1)n(C1CCCCC1)c(=O)n2S(=O)(=O)c1ccc(C(=O)NC23CC4CC(CC(C4)C2)C3)cc1OC
20,292 to 294 °C,CC(C)(C)Nc1c(NCc2ccc(OC(F)(F)F)cc2)c(=O)c1=O
21,119 to 125 °C,Cc1cc(C)c(C(=NO)C(F)(F)F)c(C)c1
22,235 to 236 °C,Cc1nc2cc(S(=O)(=O)n3c(CCC(=O)O)cc4cc(C(F)(F)F)ccc43)ccc2s1
23,222 to 225 °C,O=C(NC1CCCCC1)NC1CCCc2sccc21 (stereo not given)

row,melting point,SMILES
1,184 to 185 °C,Oc1ccc2cc(OCCN3CCC(Cc4ccc(F)cc4)CC3)ccc2c1
2,119 to 120 °C,C[Si](CCSCCNC(=O)n1cc(F)c(=O)[nH]c1=O)(c1ccccc1)c1ccccc1
3,122 to 127 °C,COc1cccc(C(=NO)c2ccc(F)cc2F)c1
4,208 to 209 °C,CC(C)(C)c1ccc(-c2c(Cl)c(CCl)nc3sc4c(c23)CCN(Cc2ccccc2)C4)cc1
5,121 °C,Cc1ccc(-c2cc(C(F)(F)F)n3ncc(C#N)c3n2)cc1
6,193 °C,CC(C)c1ccc2[nH]c3c(c2c1)Cc1ccccc1-3
7,116 to 117 °C,COC(=O)c1sc(C)c(O)c1O
8,76 to 78 °C,Cn1cc(C(=O)Nc2ccccc2-c2cccc(C#N)c2)c(C(F)(F)F)n1
9,60 to 61 °C,CCOC(=O)Cc1nc(-c2ccc(F)cc2)oc1CC(C)C
10,246 to 249 °C,O=C(O)C1=Cc2ccc3ccccc3c2OC1C(F)(F)F (stereo not given)
11,179 to 181 °C,Cc1oc2ccccc2c1C(=O)NCc1ccc2c(Br)c(O)ccc2c1
12,73 to 75 °C,CN(C)CC/C=C1/c2ccccc2CCc2ccc(Br)cc21
13,41 to 42.5 °C,C#CCCCCNC(=O)C(F)(F)F
14,180 °C,CCNC(=O)C1OC(n2cnc3c(NCc4ccc(O)cc4)ncnc32)C(O)C1O (stereo not given)
15,148 to 150 °C,Cc1cc(Cl)cc(C)c1NC(=O)N(CCC(C)(C)C)Cc1ccc(CC(C)(C)C)cc1
16,141 to 143 °C,CCOC(=O)c1cc(-n2c(=O)c3c(n(C)c2=O)CCC3)ccc1Cl
17,75 °C,c1ccc(CN2CCC(Oc3ccccn3)CC2)cc1
18,193 to 195 °C,Nc1ccn(C2CCCO2)c(=O)n1 (stereo not given)
19,49 to 51 °C,O=C(O)C(Cl)(Cl)CCCCCCCCCCBr
20,> 300 °C,CC(C)(C)OC(=O)Cn1c(=O)c(=O)[nH]c2cc(Cl)c(Cl)cc21
21,114 to 115 °C,O=C(CCc1ccccc1)N[C@H](Cc1ccc(C(F)(F)F)cc1)[C@@H](O)c1ccc(F)c(F)c1 (racemic)
22,282 to 284 °C,COc1ccc2c(c1)C(=O)c1c-2n(CCCBr)c(=O)c2cc([N+](=O)[O-])ccc12
23,224 to 226 °C,COCOCc1nc2nc(O)cnc2c(=O)[nH]1

row,melting point,SMILES
1,53 °C,C=C(Cc1ccc(-c2ccccc2)cc1)CN1CCC(C)CC1
2,90 to 91 °C,CCN(CC)c1nc(Cl)nc2c(SC)ncnc12
3,171 to 172 °C,CCN(CC)CC1CCCCN1CC(=O)N1c2ccccc2NC(=O)c2ccccc21 (stereo not given)
4,129 to 130 °C,COc1ccc(CCCC(O)COc2ccc(OCc3ncc[nH]3)cc2)cc1OC (stereo not given)
5,64 to 67 °C,C[C@H]1C(=O)OCN1C(=O)OC(C)(C)C
6,113 to 114 °C,CC(=O)ON(CCOc1ccc2c(c1)CCN(CCCc1ccc(F)cc1)C2=O)C(N)=O
7,156 to 158 °C,O=C1NCCCc2cc(CCCl)sc21
8,178 °C,CCOC(=O)C1=C(C)NC(C)=C(C(=O)OC)C1c1ccccc1C#N (stereo not given)
9,129 to 130 °C,COc1cc(C=O)ccc1OCc1csc(N2CCCCC2)n1
10,111 to 112 °C,CC(=Cc1ccc([N+](=O)[O-])cc1)C(=O)Oc1ccc(Cl)cc1
11,135 °C,CC(=O)c1ccc(F)c(S(N)(=O)=O)c1
12,69 to 71 °C,CC(C)(C)NNC(=O)OC(C)(C)C
13,175 to 176 °C,COc1cc2c(cc1O)CCN(C(=O)c1cc(OC)c(OC)c(OC)c1)C2=O
14,215 to 217 °C,O=C1CC2CCSc3sccc3C2=NN1 (stereo not given)
15,135 to 137 °C,CC(=O)Nc1ccc(OCCCOc2ccc(Cl)c(Cl)c2)cc1
16,147 °C,CC1(c2cc(N3C(=O)C4=C(CCCC4)C3=O)c(F)cc2Cl)OCCO1
17,115 to 116 °C,CCCC(=O)c1cnc2c(C)cccc2c1Nc1cc(OC)ccc1OC
18,132 to 133 °C,O=C(O)c1cc(Oc2ccc(Cl)cc2Cl)ccc1Br
19,295 °C,O=c1[nH]c2cc(Cl)ccc2n(CCO)c1=O
20,195 to 197 °C,COC(=O)c1cc2c3ccccc3n(S(=O)(=O)c3ccccc3)c2s1
21,55 to 60 °C,CCOC(=O)c1cnc2c(cnn2CC)c1Cl
22,222 to 234 °C,COC(=O)C1=C(C)NC(=O)NC1c1cccc(N)c1 (stereo not given)
23,335 to 336 °C,CCOc1cc2c(cc1OC)Nc1[nH]cnc(=O)c1C2

row,SMILES,melting point
1,N#Cc1nn(-c2c(Cl)cc(C(F)(F)F)cc2Cl)cc1C=C(Cl)Cl,99 to 101 °C
2,CCOC(=O)C=Cc1ccc(C#CC2(O)CN3CCC2CC3)c(OCC)c1 (stereo not given),152 to 153 °C
3,CC(=O)N1N=C(c2ccc([N+](=O)[O-])c(C)c2)c2cc3c(cc2CC1C)OCO3 (stereo not given),123 to 127 °C
4,COC1CCC(NC(=O)C2CC3c4cccc5c4c(cn5C(C)C)CC3N(C)C2)CC1 (stereo not given),> 230 °C
5,CN1Cc2c(C(N)=O)ncn2-c2ccc(F)c(Cl)c2C1=O,292 to 294 °C
6,Cc1nn(C)c(S(N)(=O)=O)c1[N+](=O)[O-],138 to 140 °C
7,O=C(c1c(Cl)cccc1Cl)P(=O)(C(=O)c1c(Cl)cccc1Cl)c1ccccc1,194 °C
8,CN1C(=O)C(C)(C)N=C(c2ccccc2F)c2cc(NC(=O)OCc3ccccc3)cc(Cl)c21,125 to 127 °C
